Test results taken from ChEMBL document CHEMBL5505958, “Optimization of sequence and chiral content enhances therapeutic potential of tilapia piscidin peptides” (Eur J Med Chem, 2024).
≈ marks a conversion by molar mass, not a printed value. Calls of active or inactive are those of the source. The calls are words filed in the database; no cut-off is given here.

Experiments:
Escherichia coli [1] = assay: Antibacterial activity against Escherichia coli 10675 assessed as inhibition of bacterial growth incubated for 16 to 20 hrs in presence of human serum; type: functional; settings: time 16-20 hrs
Klebsiella pneumoniae [2] = assay: Bactericidal activity against Klebsiella pneumoniae BAA 2473 assessed as inhibition of bacterial growth in presence of 1 microg/ml of chymotrypsin (reference value: 1.56 to 3.13 microM); type: functional
Klebsiella pneumoniae [3] = assay: Antibacterial activity against Klebsiella pneumoniae BAA 2473 assessed as inhibition of bacterial growth in presence of 0.1 microg/ml of trypsin (reference value: 1.56 to 3.13 microM); type: functional
Vibrio vulnificus [4] = assay: Bactericidal activity against Vibrio vulnificus 204 assessed as inhibition of bacterial growth incubated for 16 to 20 hrs in presence of human serum; type: functional; settings: time 16-20 hrs
Lipopolysaccharide (LPS) = assay: Displacement of BODIPY-TR-cadaverine from Klebsiella pneumoniae BAA 2473 lipopolysaccharide (LPS) assessed as increase in fluorescence intensity at 3.125 uM by fluorescence spectrophotometric analysis; type: subcellular
Rhizopus arrhizus [5] = assay: Antifungal activity against Rhizopus oryzae 34550 assessed as inhibition of fungal growth incubated for 16 to 20 hrs in presence of human serum; type: functional; settings: time 16-20 hrs
Klebsiella pneumoniae [6] = assay: Bactericidal activity against Klebsiella pneumoniae BAA 2473 assessed as inhibition of bacterial growth in presence of 1 microg/ml of trypsin (reference value: 1.56 to 3.13 microM); type: functional
Salmonella enterica [7] = assay: Antibacterial activity against Salmonella enterica 15455 assessed as inhibition of bacterial growth incubated for 16 to 20 hrs in presence of human serum; type: functional; settings: time 16-20 hrs
Klebsiella aerogenes = assay: Bactericidal activity against Enterobacter aerogenes 15630 assessed as inhibition of bacterial growth incubated for 16 to 20 hrs; type: functional; settings: time 16-20 hrs
Yersinia enterocolitica [8] = assay: Antibacterial activity against Yersinia enterocolitica 13999 assessed as inhibition of bacterial growth incubated for 16 to 20 hrs; type: functional; settings: time 16-20 hrs
Klebsiella pneumoniae [9] = assay: Antibacterial activity against Klebsiella pneumoniae 10692 assessed as inhibition of bacterial growth incubated for 16 to 20 hrs; type: functional; settings: time 16-20 hrs
Enterococcus faecium [10] = assay: Bactericidal activity against Enterococcus faecium 10067 assessed as inhibition of bacterial growth incubated for 16 to 20 hrs in presence of human serum; type: functional; settings: time 16-20 hrs
Acinetobacter baumannii = assay: Antibacterial activity against Acinetobacter baumannii 10591 assessed as inhibition of bacterial growth incubated for 16 to 20 hrs; type: functional; settings: time 16-20 hrs
Klebsiella pneumoniae [11] = assay: Antibacterial activity against Klebsiella pneumoniae TL 297 assessed as inhibition of bacterial growth incubated for 16 to 20 hrs in presence of human serum; type: functional; settings: time 16-20 hrs
Klebsiella pneumoniae [12] = assay: Bactericidal activity against Klebsiella pneumoniae BAA 2473 assessed as inhibition of bacterial growth in presence of 10 microg/ml of proteinase K (reference value: 1.56 to 3.13 microM); type: functional
Klebsiella pneumoniae [13] = assay: Bactericidal activity against Klebsiella pneumoniae BAA 2473 assessed as inhibition of bacterial growth in presence of 0.1 microg/ml of trypsin (reference value: 1.56 to 3.13 microM); type: functional
Salmonella typhimurium [14] = assay: Bactericidal activity against Salmonella typhimurium DT104 assessed as inhibition of bacterial growth incubated for 16 to 20 hrs; type: functional, Salmonella enterica subsp. enterica serovar Typhimurium; settings: Salmonella enterica, time 16-20 hrs
Klebsiella pneumoniae [15] = assay: Antibacterial activity against Klebsiella pneumoniae BAA 2473 assessed as inhibition of bacterial growth in presence of 1 microg/ml of chymotrypsin (reference value: 1.56 to 3.13 microM); type: functional
Staphylococcus aureus = assay: Antibacterial activity against Staphylococcus aureus 10780 assessed as inhibition of bacterial growth incubated for 16 to 20 hrs in presence of human serum; type: functional; settings: time 16-20 hrs
Cell membrane = assay: Induction of outer cell membrane permeabilization in Klebsiella pneumoniae BAA 2473 assessed as increase in fluorescence intensity by NPN uptake assay; type: cell membranes
Klebsiella pneumoniae [16] = assay: Bactericidal activity against Klebsiella pneumoniae TL 297 assessed as inhibition of bacterial growth incubated for 16 to 20 hrs in presence of human serum; type: functional; settings: time 16-20 hrs
Salmonella enterica [17] = assay: Bactericidal activity against Salmonella enterica 15455 assessed as inhibition of bacterial growth incubated for 16 to 20 hrs in presence of human serum; type: functional; settings: time 16-20 hrs
Klebsiella pneumoniae [18] = assay: Antibacterial activity against Klebsiella pneumoniae BAA 2473 assessed as inhibition of bacterial growth in presence of 0.1 microg/ml of pepsin (reference value: 1.56 to 3.13 microM); type: functional
Enterococcus faecium [19] = assay: Antibacterial activity against Enterococcus faecium 10067 assessed as inhibition of bacterial growth incubated for 16 to 20 hrs in presence of human serum; type: functional; settings: time 16-20 hrs
Klebsiella pneumoniae [20] = assay: Bactericidal activity against Klebsiella pneumoniae BAA 2473 assessed as inhibition of bacterial growth in presence of 10 microg/ml of pepsin (reference value: 1.56 to 3.13 microM); type: functional
Enterococcus faecium [21] = assay: Bactericidal activity against Enterococcus faecium 10067 assessed as inhibition of bacterial growth incubated for 16 to 20 hrs; type: functional; settings: time 16-20 hrs
Rhizopus arrhizus [22] = assay: Fungicidal activity against Rhizopus oryzae 34550 assessed as inhibition of fungal growth incubated for 72 hrs; type: functional
Escherichia coli [23] = assay: Bactericidal activity against Escherichia coli 10675 assessed as inhibition of bacterial growth incubated for 16 to 20 hrs; type: functional; settings: time 16-20 hrs
Klebsiella pneumoniae [24] = assay: Antibacterial activity against Klebsiella pneumoniae BAA 2473 assessed as inhibition of bacterial growth in presence of 10 microg/ml of trypsin (reference value: 1.56 to 3.13 microM); type: functional
Escherichia coli [25] = assay: Antibacterial activity against Escherichia coli 10675 assessed as inhibition of bacterial growth incubated for 16 to 20 hrs; type: functional; settings: time 16-20 hrs
Vibrio vulnificus [26] = assay: Antibacterial activity against Vibrio vulnificus 204 assessed as inhibition of bacterial growth incubated for 16 to 20 hrs in presence of human serum; type: functional; settings: time 16-20 hrs
Rhizopus arrhizus [27] = assay: Antifungal activity against Rhizopus oryzae 34550 assessed as inhibition of fungal growth incubated for 16 to 20 hrs; type: functional; settings: time 16-20 hrs
Klebsiella pneumoniae [28] = assay: Bactericidal activity against Klebsiella pneumoniae BAA 2473 assessed as inhibition of bacterial growth in presence of 1 microg/ml of pepsin (reference value: 1.56 to 3.13 microM); type: functional
Yersinia enterocolitica [29] = assay: Bactericidal activity against Yersinia enterocolitica 13999 assessed as inhibition of bacterial growth incubated for 16 to 20 hrs; type: functional; settings: time 16-20 hrs
Salmonella typhimurium [30] = assay: Antibacterial activity against Salmonella typhimurium DT104 assessed as inhibition of bacterial growth incubated for 16 to 20 hrs in presence of human serum; type: functional, Salmonella enterica subsp. enterica serovar Typhimurium; settings: Salmonella enterica, time 16-20 hrs
Enterococcus faecalis = assay: Bactericidal activity against Enterococcus faecalis 10066 assessed as inhibition of bacterial growth incubated for 16 to 20 hrs; type: functional; settings: time 16-20 hrs
Klebsiella pneumoniae [31] = assay: Bactericidal activity against Klebsiella pneumoniae BAA 2473 assessed as inhibition of bacterial growth in presence of 0.1 microg/ml of chymotrypsin (reference value: 1.56 to 3.13 microM); type: functional
Salmonella enterica [32] = assay: Bactericidal activity against Salmonella enterica 15455 assessed as inhibition of bacterial growth incubated for 16 to 20 hrs; type: functional; settings: time 16-20 hrs
Klebsiella pneumoniae [33] = assay: Bactericidal activity against Klebsiella pneumoniae BAA 2473 assessed as inhibition of bacterial growth in presence of 1 microg/ml of proteinase K (reference value: 1.56 to 3.13 microM); type: functional
Klebsiella pneumoniae [34] = assay: Antibacterial activity against Klebsiella pneumoniae BAA 2473 assessed as inhibition of bacterial growth in presence of 1 microg/ml of pepsin (reference value: 1.56 to 3.13 microM); type: functional

Compound	MIC (Escherichia coli [1]) [µM]	MBC (Klebsiella pneumoniae [2]) [µM]	MIC (Klebsiella pneumoniae [3]) [µM]	MBC (Vibrio vulnificus [4]) [µM]	Activity (Lipopolysaccharide (LPS)) [%]	MIC (Rhizopus arrhizus [5]) [µM]	MBC (Klebsiella pneumoniae [6]) [µM]	MIC (Salmonella enterica [7]) [µM]	MBC (Klebsiella aerogenes) [µM]	MIC (Yersinia enterocolitica [8]) [µM]	MIC (Klebsiella pneumoniae [9]) [µM]	MBC (Enterococcus faecium [10]) [µM]	MIC (Acinetobacter baumannii) [µM]	MIC (Klebsiella pneumoniae [11]) [µM]	MBC (Klebsiella pneumoniae [12]) [µM]	MBC (Klebsiella pneumoniae [13]) [µM]	MBC (Salmonella typhimurium [14]) [µM]	MIC (Klebsiella pneumoniae [15]) [µM]	MIC (Staphylococcus aureus) [µM]	Activity (Cell membrane)	further results
H-FIHHIIGGLFSAGKAIHRLIRRRRR-OH	> 100	> 100	1.56	> 100	95	> 25	> 100	100	6.25	3.13	0.78	100	1.56	> 100	> 100	3.13	6.25	> 100	> 100	Active	MBC (Klebsiella pneumoniae [16]): > 100 µM; MBC (Salmonella enterica [17]): 100 µM; MIC (Klebsiella pneumoniae [18]): 1.56 µM; MIC (Enterococcus faecium [19]): 100 µM; MBC (Klebsiella pneumoniae [20]): > 100 µM; MBC (Enterococcus faecium [21]): 0.78 µM; MFC (Rhizopus arrhizus [22]): 1.56 µM; MBC (Escherichia coli [23]): 6.25 µM; MIC (Klebsiella pneumoniae [24]): > 100 µM; MIC (Escherichia coli [25]): 6.25 µM; MIC (Vibrio vulnificus [26]): > 100 µM; MIC (Rhizopus arrhizus [27]): 1.56 µM; MBC (Klebsiella pneumoniae [28]): > 100 µM; MBC (Yersinia enterocolitica [29]): 3.13 µM; MIC (Salmonella typhimurium [30]): > 100 µM; MBC (Enterococcus faecalis): 3.13 µM; MBC (Klebsiella pneumoniae [31]): 1.56 µM; MBC (Salmonella enterica [32]): < 1.56 µM; MBC (Klebsiella pneumoniae [33]): > 100 µM; MIC (Klebsiella pneumoniae [34]): > 100 µM
CC(C)C[C@H](NC(=O)[C@@H](C)NC(=O)[C@@H](CCCCN)NC(=O)[C@H](CC(C)C)NC(=O)[C@@H](CC(C)C)NC(=O)[C@@H](CCCCN)NC(=O)[C@H](CCCCN)NC(=O)[C@@H](CC(C)C)NC(=O)[C@H](N)Cc1ccccc1)C(=O)N[C@H](Cc1ccccc1)C(=O)N[C@H](CO)C(=O)N[C@@H](C)C(=O)N1CCC[C@@H]1C(=O)N[C@H](CCCCN)C(=O)N[C@@H](C)C(=O)N[C@H](CC(C)C)C(=O)N[C@H](CCCCN)C(=O)N[C@@H](CCCNC(=N)N)C(=O)N[C@H](CC(C)C)C(=O)N[C@H](CC(C)C)C(=O)N[C@@H](CCCNC(=N)N)C(=O)N[C@H](CCCNC(=N)N)C(=O)N[C@H](CCCNC(=N)N)C(=O)N[C@@H](CCCNC(=N)N)C(=O)N[C@@H](CCCNC(=N)N)C(=O)O	0.78	0.78	0.78	12.5	100	6.25	1.56	0.78	3.13 (≈ 9.64 µg/mL)	3.13 (≈ 9.64 µg/mL)	6.25 (≈ 19.2 µg/mL)	100	3.13 (≈ 9.64 µg/mL)	1.56	1.56	1.56	3.13 (≈ 9.64 µg/mL)	0.78	6.25	Active	MBC (Klebsiella pneumoniae [16]): 1.56 µM; MBC (Salmonella enterica [17]): 0.78 µM; MIC (Klebsiella pneumoniae [18]): 0.78 µM; MIC (Enterococcus faecium [19]): 100 µM; MBC (Klebsiella pneumoniae [20]): 1.56 µM; MBC (Enterococcus faecium [21]): 12.5 µM (≈ 38.5 µg/mL); MFC (Rhizopus arrhizus [22]): 1.56 µM (≈ 4.8 µg/mL); MBC (Escherichia coli [23]): 1.56 µM (≈ 4.8 µg/mL); MIC (Klebsiella pneumoniae [24]): 0.78 µM; MIC (Escherichia coli [25]): 1.56 µM (≈ 4.8 µg/mL); MIC (Vibrio vulnificus [26]): 12.5 µM; MIC (Rhizopus arrhizus [27]): 1.56 µM (≈ 4.8 µg/mL); MBC (Klebsiella pneumoniae [28]): 1.56 µM; MBC (Yersinia enterocolitica [29]): 3.13 µM (≈ 9.64 µg/mL); MIC (Salmonella typhimurium [30]): 6.25 µM; MBC (Enterococcus faecalis): 12.5 µM (≈ 38.5 µg/mL); MBC (Klebsiella pneumoniae [31]): 0.78 µM; MBC (Salmonella enterica [32]): 3.13 µM (≈ 9.64 µg/mL); MBC (Klebsiella pneumoniae [33]): 0.78 µM; MIC (Klebsiella pneumoniae [34]): 0.78 µM
